Experimental data taken from patent publication US20010046704A1, “Methods and compositions to activate genes in cells” (priority 2000, published 2001).

What was measured:
DNA = settings: compared with other mutagenic agents; cited from earlier work
mouse ES stem cells = assay: Chemical mutagenesis of cell suspensions, cytotoxicity of the mutagen; assay type: cell-based; settings: cell suspensions (eg, mouse ES stem cells) exposed to doses as high as 0.4 mg/mL for 2 to 3 hours
Description: In this regard, numerous chemical mutagens have been described and used in the past, as described for instance by Russell et al., Biology of Mammalian Germ Cell Mutagenesis, Cold Spring Harbor Laboratory Press, 1990:271-285; Rinchik E. M., Trends in Genetics, 1991;7(1):15-21; or Marker et al., Genetics, 1997;145(2):435-443. For mutagenesis, cells are preferably treated with increasing amounts of the chemical mutagen(s) either in whole animals or in cell suspensions, to assess the cytotoxicity of the chemical mutagen(s). Typical doses have been described in the literature as cited above. For example, cell suspensions (eg, mouse ES stem cells) are exposed to doses of N-ethyl-N-nitrosourea (ENU) as high as 0.4 mg/mL for 2 to 3 hours, which results in more than 98% of the cells dying. […] Other mutagens include for instance intercalating agents, alkylating agents, strand breaking agents, mismatch-inducing agents, etc.

For `CCN(N=O)C(N)=O` [ENU, N-ethyl-N-nitrosourea], the “efficiency in generating mutations relative to other agents” value (DNA) is listed as “at least 10 times” and the cells dying (mouse ES stem cells) is listed as “more than 98%”.
